The text below walks through data of US11660293B2, “Substituted 2-azabicyclo[3.1.1]heptane and 2-azabicyclo[3.2.1]octane derivatives as orexin receptor antagonists” (Chronos Therapeutics Limited, priority 2017, dated 2023).

Molecules are shown by their SMILES.

For assay [1], the target named is human Orexin type 2 receptors (Homo sapiens (Human), UniProt O43614). The assay can be described thus: Scintillation Proximity Assay (SPA) binding assay, [3H]EMPA displacement, HEK-hOX2 membranes. As to the method: Scintillation Proximity Assay (SPA) Binding Assays
Sequence of human Orexin type 2 receptors (O43614 whole entry): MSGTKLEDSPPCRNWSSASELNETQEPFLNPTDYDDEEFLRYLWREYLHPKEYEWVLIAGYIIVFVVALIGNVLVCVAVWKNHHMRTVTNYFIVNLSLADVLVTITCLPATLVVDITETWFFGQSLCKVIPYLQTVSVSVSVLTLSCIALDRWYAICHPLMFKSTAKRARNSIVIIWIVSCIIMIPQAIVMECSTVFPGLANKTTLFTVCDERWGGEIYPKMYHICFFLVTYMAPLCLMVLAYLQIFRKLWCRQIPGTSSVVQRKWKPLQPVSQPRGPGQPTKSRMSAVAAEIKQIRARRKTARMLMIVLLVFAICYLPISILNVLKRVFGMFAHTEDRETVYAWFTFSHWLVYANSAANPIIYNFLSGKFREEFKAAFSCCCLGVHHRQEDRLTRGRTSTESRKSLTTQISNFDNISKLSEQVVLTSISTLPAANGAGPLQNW
CHO cells stably transfected with human Orexin type 1 receptors (CHO-hOX1) or HEK-293 cells transiently transfected with human Orexin type 2 receptors (HEK-hOX2) were collected after 16 h induction with 5 mM sodium butyrate. The cell pellets were re-suspended, homogenized in 15 mM Tris/HCl pH=7.5, 1 mM EGTA, 0.3 mM EDTA, 2 mM MgCl2, protease inhibitors and centrifuged at 40,000 g (20 min, 4° C.). After re-suspension, homogenization and centrifugation as above, the final pellets were re-suspended in 75 mM Tris/HCl pH=7.5, 1 mM EGTA, 0.3 mM EDTA, 12.5 mM MgCl2, 250 mM Sucrose, protease inhibitors, divided into aliquots and frozen down at −80° C.
CHO-hOX1 cell membranes (6 μg ml^−1) or HEK-hOX2 membranes (8 μg ml^−1) were pre-coupled with 1.0 mg ml^−1 of Wheatgerm Agglutinin-coated Yttrium Silicate (YSi-WGA) SPA beads (Perkin Elmer) in buffer containing 25 mM HEPES pH=7.4, 1 mM CaCl2), 5 mM MgCl2, 0.01% (w/v) BSA, 0.02% (w/v) Pluronic F-127 by shaking at room temperature for 2.5-3 h.
(§1) The binding was performed in a final volume of 200 μl. 100 μl of hOX1 or hOX2 beads-membranes suspension were added to 100 μl of [^3H]SB-674042 or [^3H]EMPA solutions (radioligand concentration 2 nM final in the assay), into the 96-well Isoplates containing the 2 μl/well of compounds to be tested. Nonspecific binding was measured in the presence of 1 μM Almorexant. Assay plates were then incubated at room temperature for 3 h before being counted in a Microbeta scintillation counter (PerkinElmer).
Data were analysed by non-linear regression analysis using XLfit Software.
In general terms: Scintillation proximity formats need no separation of bound from free tracer.

Assay [2] addresses human Orexin type 1 receptors (Homo sapiens (Human), UniProt O43613). The assay is described as follows: Scintillation Proximity Assay (SPA) binding assay, [3H]SB-674042 displacement, CHO-hOX1 membranes. The method, then: as §1, with “Scintillation Proximity Assay (SPA) Binding Assays CHO cells stably transfected with human Orexin type 1 receptors (CHO-hOX1) or HEK-293 cells transiently transfected with human Orexin type 2 receptors (HEK-hOX2) were collected after 16 h induction with 5 mM sodium butyrate. […] The” for “The”, “(PerkinElmer). Data were analysed by non-linear regression analysis using XLfit Software.” for “(PerkinElmer).”

Sequence of human Orexin type 1 receptors (O43613 whole entry): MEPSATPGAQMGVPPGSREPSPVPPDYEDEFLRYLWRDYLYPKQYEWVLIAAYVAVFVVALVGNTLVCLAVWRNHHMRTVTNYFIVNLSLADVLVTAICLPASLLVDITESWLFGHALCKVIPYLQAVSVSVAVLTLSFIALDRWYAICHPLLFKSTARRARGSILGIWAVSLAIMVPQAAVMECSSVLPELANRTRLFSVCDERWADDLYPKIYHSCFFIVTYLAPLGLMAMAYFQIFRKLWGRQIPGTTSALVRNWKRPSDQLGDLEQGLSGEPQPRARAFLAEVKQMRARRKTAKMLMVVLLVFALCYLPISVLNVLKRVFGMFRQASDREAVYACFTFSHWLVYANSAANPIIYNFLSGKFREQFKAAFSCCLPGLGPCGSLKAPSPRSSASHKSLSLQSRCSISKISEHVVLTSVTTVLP

Regarding `COc1nc(C(=O)N2C(COc3ccc(F)cc3)CC3CC2C3)c(-c2ccccc2)s1` (stereo not shown) [Example 52], the “OX2 pKi (SPA binding)” value in assay [1] (Table 1, [3H]EMPA 2 nM) was 6.79. In assay [2] (Table 1, [3H]SB-674042 2 nM), the “OX1 pKi (SPA binding)” value amounted to 7.71.
With `Cc1nc(C(=O)N2C3CC(C3)[C@H](C)C2COc2ccc(F)cc2)c(-c2ncccn2)s1` (mixture of isomers) [Example 113, trans-3-[(4-fluorophenoxy)methyl]-4-methyl-2-[2-methyl-5-(pyrimidin-2-yl)-1,3-thiazole-4-carbonyl]-2-azabicyclo[3.1.1]heptane], the “OX2 pKi (SPA binding)” value in assay [1] (Table 2, [3H]EMPA 2 nM) stood at 5.72. In addition, the “OX1 pKi (SPA binding)” value in assay [2] (Table 2, [3H]SB-674042 2 nM) is listed as 8.21.
Consider `Cc1ccc(-n2ncc(C)n2)c(C(=O)N2C3CC(C3)[C@@H](C)C2COc2ccc(F)cc2)n1` (mixture of isomers) [Example 144, cis-3-[(4-fluorophenoxy)methyl]-4-methyl-2-[6-methyl-3-(4-methyl-2H-1,2,3-triazol-2-yl)pyridine-2-carbonyl]-2-azabicyclo[3.1.1]heptane], for which the “OX2 pKi (SPA binding)” value in assay [1] (Table 2, [3H]EMPA 2 nM) worked out at 6.83. Also, the “OX1 pKi (SPA binding)” value in assay [2] (Table 2, [3H]SB-674042 2 nM) is listed as 7.96.
Taken in the same sequence, the figures for `C[C@@H]1C2CC(C2)N(C(=O)c2cc(F)ccc2-n2nccn2)C1CNc1ncc(C2CC2)cn1` (stereo partly shown) [Example 260] were 4.89 and 7.45.
On to `Cc1nc(C(=O)N2C3CC(C3)[C@H](C)[C@@H]2COc2cc3ccccc3cn2)c(-c2ccccc2)s1` (single isomer, unassigned) [Example 89, 3-{[(3S,4R or 3R,4S)-4-methyl-2-(2-methyl-5-phenyl-1,3-thiazole-4-carbonyl)-2-azabicyclo[3.1.1]heptan-3-yl]methoxy}isoquinoline], for which the Ki in assay [1] (Table 1, [3H]EMPA 2 nM, read-out: OX2 pKi (SPA binding) (converted)) was 1000 nM; in assay [2] (Table 1, [3H]SB-674042 2 nM, read-out: OX1 pKi (SPA binding) (converted)), 1.38 nM.
For `Cc1nc(C(=O)N2C3CC(C3)[C@H](F)[C@H]2COc2ccc(F)cn2)c(-c2ccccc2)s1` (single isomer, unassigned) [Example 63, (3R,4S or 3S,4R)-4-fluoro-3-{[(5-fluoropyridin-2-yl)oxy]methyl}-2-(2-methyl-5-phenyl-1,3-thiazole-4-carbonyl)-2-azabicyclo[3.1.1]heptane], the “OX2 pKi (SPA binding)” value in assay [1] (Table 1, [3H]EMPA 2 nM) came to 6.37. Besides, the “OX1 pKi (SPA binding)” value in assay [2] (Table 1, [3H]SB-674042 2 nM) was found to be 8.06.
For the molecule `C[C@@H]1C2CC(C2)N(C(=O)c2cc(Cl)ccc2-n2nccn2)C1CNc1nc2cccnc2o1` (mixture of isomers) [Example 242, cis-N-({2-[5-chloro-2-(2H-1,2,3-triazol-2-yl)benzoyl]-4-methyl-2-azabicyclo[3.1.1]heptan-3-yl}methyl)-[1,3]oxazolo[5,4-b]pyridin-2-amine], the “OX2 pKi (SPA binding)” value in assay [1] (Table 2, [3H]EMPA 2 nM) came out at 5.14. In addition, the “OX1 pKi (SPA binding)” value in assay [2] (Table 2, [3H]SB-674042 2 nM) is reported as 8.1.
As to `Cc1cnc(NCC2[C@H](C)C3CC(C3)N2C(=O)c2nc(C)ccc2-n2nccn2)cn1` (mixture of isomers) [Example 216, cis-5-methyl-N-({4-methyl-2-[6-methyl-3-(2H-1,2,3-triazol-2-yl)pyridine-2-carbonyl]-2-azabicyclo[3.1.1]heptan-3-yl}methyl)pyrazin-2-amine], the “OX2 pKi (SPA binding)” value in assay [1] (Table 2, [3H]EMPA 2 nM) was determined as 4.62. In assay [2] (Table 2, [3H]SB-674042 2 nM), the “OX1 pKi (SPA binding)” value stood at 6.94.
For `CCOc1ccc(C)nc1C(=O)N1C2CC(C2)[C@@H](C)C1CNc1nc2ccc(F)cc2s1` (mixture of isomers) [Example 174, cis-N-{[2-(3-ethoxy-6-methylpyridine-2-carbonyl)-4-methyl-2-azabicyclo[3.1.1]heptan-3-yl]methyl}-6-fluoro-1,3-benzothiazol-2-amine] the same measures were 7.06 and 8.82.
Take `Cc1ccc(-n2nccn2)c(C(=O)N2C3CC(C3)[C@@H](C)C2CNc2nc3cc(F)ccc3s2)n1` (mixture of isomers) [Example 157, cis-5-fluoro-N-({4-methyl-2-[6-methyl-3-(2H-1,2,3-triazol-2-yl)pyridine-2-carbonyl]-2-azabicyclo[3.1.1]heptan-3-yl}methyl)-1,3-benzothiazol-2-amine]: the “OX2 pKi (SPA binding)” value in assay [1] (Table 2, [3H]EMPA 2 nM) is 5.63. Further, the “OX1 pKi (SPA binding)” value in assay [2] (Table 2, [3H]SB-674042 2 nM) was determined as 7.84.
For `C[C@@H]1C2CC(C2)N(C(=O)c2nn(C)cc2-c2ccccc2)C1CNc1ccc(C(F)(F)F)cn1` (single isomer, unassigned) [Example 211, N-{[(3S,4R) or (3R,4R)-4-methyl-2-(1-methyl-4-phenyl-1H-pyrazole-3-carbonyl)-2-azabicyclo[3.1.1]heptan-3-yl]methyl}-5-(trifluoromethyl)pyridin-2-amine] the same measures were 6.25 and 8.91.
For `C[C@@H]1C2CC(C2)N(C(=O)c2cc(Cl)ccc2-n2nccn2)C1CNc1nc2cccnc2s1` (single isomer, unassigned) [Example 236, N-{[(3R,4S) or (3S,4R)-2-[5-chloro-2-(2H-1,2,3-triazol-2-yl)benzoyl]-4-methyl-2-azabicyclo[3.1.1]heptan-3-yl]methyl}-[1,3]thiazolo[5,4-b]pyridin-2-amine] the same measures were 5.7 and 8.99.
For `Cc1ccc(-n2nccn2)c(C(=O)N2C3CC(C3)[C@@H](C)C2CNc2ncc(C(F)(F)F)cn2)n1` (single isomer, unassigned) [Example 194, N-{[(3S,4R) or (3R,4S)-4-methyl-2-[6-methyl-3-(2H-1,2,3-triazol-2-yl)pyridine-2-carbonyl]-2-azabicyclo[3.1.1]heptan-3-yl]methyl}-5-(trifluoromethyl)pyrimidin-2-amine] the same measures were 4.66 and 7.51.
With `C[C@@H]1C2CC(C2)N(C(=O)c2cc(Cl)ccc2-n2nccn2)C1CNc1nc2cccnc2s1` (mixture of isomers) [Example 234, cis-N-({2-[5-chloro-2-(2H-1,2,3-triazol-2-yl)benzoyl]-4-methyl-2-azabicyclo[3.1.1]heptan-3-yl}methyl)-[1,3]thiazolo[5,4-b]pyridin-2-amine], the “OX2 pKi (SPA binding)” value in assay [1] (Table 2, [3H]EMPA 2 nM) was 5.46. The “OX1 pKi (SPA binding)” value in assay [2] (Table 2, [3H]SB-674042 2 nM) was determined as 8.45.
For the molecule `C[C@@H]1C2CC(C2)N(C(=O)c2cc(Cl)ccc2-n2nccn2)C1CNc1ncc(C(F)(F)F)cn1` (stereo partly drawn) [Example 239, cis-N-({2-[5-chloro-2-(2H-1,2,3-triazol-2-yl)benzoyl]-4-methyl-2-azabicyclo[3.1.1]heptan-3-yl}methyl)-5-(trifluoromethyl)pyrimidin-2-amine], the “OX2 pKi (SPA binding)” value in assay [1] (Table 2, [3H]EMPA 2 nM) turned out to be 5.51. For the same molecule, the “OX1 pKi (SPA binding)” value in assay [2] (Table 2, [3H]SB-674042 2 nM) came out at 8.04.
For `C[C@@H]1C2CC(C2)N(C(=O)c2nn(C)cc2-c2ncccn2)C1CNc1cnc(C(F)(F)F)cn1` (mixture of isomers) [Example 245, cis-N-({4-methyl-2-[1-methyl-4-(pyrimidin-2-yl)-1H-pyrazole-3-carbonyl]-2-azabicyclo[3.1.1]heptan-3-yl}methyl)-5-(trifluoromethyl)pyrazin-2-amine] the same measures were 4.49 and 7.55.
Taken in the same sequence, the figures for `Cc1nc(C(=O)N2C3CC(C3)[C@H](C)C2COc2ccc(F)cn2)c(-c2ccccn2)s1` (mixture of isomers) [Example 117, trans-3-{[(5-fluoropyridin-2-yl)oxy]methyl}-4-methyl-2-[2-methyl-5-(pyridin-2-yl)-1,3-thiazole-4-carbonyl]-2-azabicyclo[3.1.1]heptane] were 5.47 and 7.13.
`C[C@@H]1C2CC(C2)N(C(=O)c2cc(Cl)ccc2-n2nccn2)C1CNc1cnc2cc(F)ccc2n1` (single isomer, unassigned) [Example 209, N-{[(3R,4R) or (3S,4R)-2-[5-chloro-2-(2H-1,2,3-triazol-2-yl)benzoyl]-4-methyl-2-azabicyclo[3.1.1]heptan-3-yl]methyl}-6-fluoroquinoxalin-2-amine]: in assay [1] (Table 2, [3H]EMPA 2 nM), the “OX2 pKi (SPA binding)” value came out at 6.8. Further, the “OX1 pKi (SPA binding)” value in assay [2] (Table 2, [3H]SB-674042 2 nM) was found to be 8.74.
Regarding `O=C(c1nc(Cl)sc1-c1ccccc1)N1C(COc2ccc(F)cc2)CC2CC1C2` (stereo not shown) [Example 51], the “OX1 pKi (SPA binding)” value in assay [2] (Table 1, [3H]SB-674042 2 nM) stood at 7.22.
